11 compounds from ChEMBL document CHEMBL1201862, “PubChem BioAssay data set” (2004) can be followed below.

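Assay format: 96-well plates, 48-hour exposure. The concentration for 50% growth inhibition is given as GI50.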 Calls of active or inactive are those of the source. Rule as the data show it: active = GI50 up to about 1.1 µM and inactive = higher. Some results are limits rather than exact numbers.

Assay in all cases: NCI anticancer screen, dose series, 48 h
The test system of assay [1] is HOP-62.
Assay [2] deals with RPMI-8226.
For assay [3], the system named is SK-MEL-2.
The subject of assay [4] is OVCAR-8.
For assay [5], the system named is K562.
In assay [6] the test system is NCI-H460.
Assay [7] relates to OVCAR-4.
Assay [8] has as its system SNB-19.
In assay [9] the test system is SF-295.
Assay [10] relates to HCT-15.
The subject of assay [11] is SK-MEL-28.
Assay [12] has as its system HCT-116.
The subject of assay [13] is MOLT-4.
In assay [14] the test system is M14.
Assay [15] relates to OVCAR-3.
The test system of assay [16] is ACHN.
Assay [17] deals with SN12C.
The test system of assay [18] is PC-3.
The subject of assay [19] is SF-539.
Assay [20] relates to RXF 393.

On to `COc1ccc2c(c1)c1c(n2CCN(C)C)-c2cccc(OC)c2CC1`, for which the GI50 was 13.8 µM (inactive) in assay [1]; 2.05 µM (inactive) in [2]; 15.6 µM (inactive) in assay [3]; 18.7 µM (inactive) in assay [4]; 2.02 µM (inactive) in assay [5]; 14.6 µM (inactive) in [6]. Moreover, the GI50 in assay [7] was 15.8 µM (inactive); in [8] it was 18.8 µM (inactive); in [9] it was 13.5 µM (inactive); in assay [10], 15.3 µM; in [11], 14.2 µM (inactive); in assay [12] it was 13.3 µM (inactive). Also, the GI50 is 7.14 µM (inactive) in assay [13]; 11 µM (inactive) in [14]; 16.1 µM (inactive) in assay [15]; 17.9 µM (inactive) in [16]; 13.7 µM (inactive) in assay [17]; 11.6 µM (inactive) in [18].

In the case of `CC(=O)NNC1=NN(C(C)=O)C2(S1)C(=O)Nc1ccccc12` (centres undefined), the GI50 in [1], in [2], in assay [3], in assay [4], in assay [5] and in assay [6] was > 100 µM (inactive) in each case. In addition, the GI50 in [7] was > 100 µM (inactive); in [8] it was > 100 µM (inactive); in assay [10], over 100 µM; in assay [11], > 100 µM (inactive); in [12], > 100 µM (inactive); in assay [13] it was > 100 µM (inactive). Also, the GI50 in [14] was > 100 µM (inactive); in assay [19], > 100 µM (inactive); in assay [15], > 100 µM (inactive); in [16] it was > 100 µM (inactive); in assay [17] it was > 100 µM (inactive); in assay [18], 45 µM (inactive).

Turning to `C=C1CC[C@H]2C(C)=CC[C@H]3C(=C)C(=O)O[C@@H]3[C@@H]12` [EREMANTHIN], the GI50 in [3], in assay [4], in assay [5], in assay [6], in assay [7] and in [8] was > 100 µM (inactive) in each case. The GI50 in assay [9] was > 100 µM (inactive); in [10] it was over 100 µM; in assay [11], > 100 µM (inactive); in assay [12], > 100 µM (inactive); in [13], > 100 µM (inactive); in [14], > 100 µM (inactive). Besides, the GI50 in [19], in assay [16], in assay [17] and in assay [18] was > 100 µM (inactive) each time.

Turning to `CC1(C)C2CC(=O)C1(C)C(OCc1ccccc1)C2` (centres undefined), the GI50 in assay [1] was 86.1 µM (inactive); in assay [2], 27.7 µM (inactive); in [3], > 100 µM (inactive); in assay [4], > 100 µM (inactive); in [5], 22.2 µM (inactive); in [6], 33.3 µM (inactive). Also, the GI50 in assay [8] is 88.3 µM (inactive); in assay [9], 68.7 µM (inactive); in assay [10], 26.8 µM; in assay [11], 94.2 µM (inactive); in [12], 25.1 µM (inactive); in assay [13] it was 16.3 µM (inactive). Also, the GI50 is 24.8 µM (inactive) in assay [14]; > 100 µM (inactive) in assay [19]; 62.7 µM (inactive) in assay [15]; > 100 µM (inactive) in assay [16]; 36.6 µM (inactive) in assay [17]; 34.4 µM (inactive) in [18].

Take `OCC1CCCC(n2cnc3c(S)ncnc32)O1` (centres undefined): the GI50 in assay [1], in assay [2], in [3], in assay [4], in assay [5] and in assay [6] was > 100 µM (inactive) each time. Moreover, the GI50 in assay [7] was > 100 µM (inactive); in [8], > 100 µM (inactive); in assay [9] it was > 100 µM (inactive); in assay [10] it was over 100 µM; in assay [11] it was > 100 µM (inactive); in assay [12] it was > 100 µM (inactive). Further, the GI50 in [14], in assay [15], in assay [16], in assay [17], in assay [20] and in assay [18] was > 100 µM (inactive) throughout.

Consider `CNc1ncnc2c1nc(NC1CCCC1)n2C1OC(CO)C(O)C1O` (centres undefined), for which the GI50 in [1], in assay [3], in assay [4], in [6], in assay [7] and in assay [8] was > 100 µM (inactive) in each case. The GI50 in [9] was > 100 µM (inactive); in assay [10], over 100 µM; in assay [11], > 100 µM (inactive); in assay [12], > 100 µM (inactive); in [13] it was > 100 µM (inactive); in assay [14] it was > 100 µM (inactive). Also, the GI50 in [19], in [15], in assay [16], in assay [17], in assay [20] and in [18] was > 100 µM (inactive) each time.

Take `Clc1ccc(-c2nnc(-c3nn(-c4ccccc4)c4nc5ccccc5nc34)o2)cc1`: the GI50 in [1] was > 100 µM (inactive); in assay [2], 24.7 µM (inactive); in assay [3], > 100 µM (inactive); in assay [4], 82.8 µM (inactive); in assay [5], 38.2 µM (inactive); in assay [6] it was > 100 µM (inactive). Besides, the GI50 was 28 µM (inactive) in [7]; > 100 µM (inactive) in assay [8]; > 100 µM (inactive) in [9]; 55 µM in assay [10]; > 100 µM (inactive) in assay [11]; 35.9 µM (inactive) in [12]. In addition, the GI50 in assay [13] is 26.9 µM (inactive); in assay [14], 48.3 µM (inactive); in [19], > 100 µM (inactive); in assay [15] it was 34.1 µM (inactive); in [16] it was > 100 µM (inactive); in [17] it was > 100 µM (inactive). Further, the GI50 in [20] was 93.3 µM (inactive).

For `Nc1ccc2c(SCCSc3c4ccccc4nc4cc(N)ccc34)c3ccccc3nc2c1`, the GI50 is > 100 µM (inactive) in [1]; > 100 µM (inactive) in assay [2]; > 100 µM (inactive) in assay [3]; > 100 µM (inactive) in [4]; 38.6 µM (inactive) in assay [5]; > 100 µM (inactive) in [6]. For the same compound, the GI50 in [7] is > 100 µM (inactive); in [8], > 100 µM (inactive); in assay [9] it was > 100 µM (inactive); in assay [10], over 100 µM; in assay [11], > 100 µM (inactive); in assay [12] it was 57.4 µM (inactive). The GI50 in assay [13] is 15.7 µM (inactive); in [14] it was > 100 µM (inactive); in assay [19], > 100 µM (inactive); in assay [15], > 100 µM (inactive); in assay [16], 55.7 µM (inactive); in assay [17] it was > 100 µM (inactive). For the same compound, in assay [18], the GI50 was > 100 µM (inactive).

On to `CC1CCC2(NC1)OC1CC3[C@@H]4CC=C5C=CCC[C@]5(C)C4CC[C@]3(C)C1C2C` (some centres undefined), for which the GI50 in [1] is 18.6 µM (inactive); in [2], 20 µM (inactive); in [3], 19 µM (inactive); in assay [4], 17.9 µM (inactive); in assay [5], 18.5 µM (inactive); in [6], 19 µM (inactive). Moreover, the GI50 is 18.2 µM (inactive) in assay [7]; 38.5 µM (inactive) in assay [8]; 23.3 µM (inactive) in [9]; 21 µM in assay [10]; 15.6 µM (inactive) in [11]; 17.7 µM (inactive) in assay [12]. Also, the GI50 is 21.7 µM (inactive) in assay [13]; 22.4 µM (inactive) in assay [14]; 19.6 µM (inactive) in assay [19]; 24.9 µM (inactive) in [15]; 22.9 µM (inactive) in [16]; 27.7 µM (inactive) in assay [17]. Besides, the GI50 in assay [20] is 18.8 µM (inactive).

For `COc1cc2c(c(OC3OC(CO)C(O)C(O)C3O)c1)C(=O)CC(c1ccc(O)cc1)O2` (centres undefined), the GI50 in assay [2], in assay [3], in [4], in [5], in assay [6] and in assay [7] was > 100 µM (inactive) throughout. For the same compound, the GI50 in assay [8] is > 100 µM (inactive); in assay [9], > 100 µM (inactive); in assay [10] it was over 100 µM; in assay [11] it was > 100 µM (inactive); in assay [12], > 100 µM (inactive); in assay [13] it was > 100 µM (inactive). Also, the GI50 in assay [14], in assay [19], in assay [15], in assay [16], in assay [17] and in [18] was > 100 µM (inactive) each time.

As for `NNc1nnc(CCCCCCCCc2nnc(NN)n2N)n1N`, the GI50 in [1] is 37.2 µM (inactive); in assay [3], 84.5 µM (inactive); in assay [4] it was 17.1 µM (inactive); in assay [5] it was 14 µM (inactive); in [6] it was > 100 µM (inactive); in assay [7] it was > 100 µM (inactive). Moreover, the GI50 in assay [8] is 64.3 µM (inactive); in assay [9] it was 76.9 µM (inactive); in assay [10], over 100 µM; in assay [11], > 100 µM (inactive); in [12], > 100 µM (inactive); in assay [13] it was 33.2 µM (inactive). Further, the GI50 in assay [14], in assay [19], in [16], in assay [17], in assay [20] and in assay [18] was > 100 µM (inactive) each time.
